These results are taken from patent publication US20240252586A1, “ENGINEERED ANTIMICROBIAL PEPTIDES AND USAGE THEREOF” (priority 2021, published 2024).

One data set deals with S. epidermidis. Kind of data set: Broth microdilution MIC, PJI isolates (Example 1). The format is cell-based, Staphylococcus epidermidis. The note with it: RPMI. Here is the method: (§1) Imipenem, levofloxacin, tigecycline, linezolid, vancomycin, oxacillin, ceftazidime, colistin, and amikacin were tested as comparators. Testing was conducted in accordance with guidelines from the Clinical and Laboratory Standards Institute (CLSI; M7 and M100). Test organisms comprised reference strains from the American Type Culture Collection, the Centers for Disease Control Antibiotic Reference Bank and clinical isolates from the Micromyx repository.
On the technique in general: Dilution methods test growth across graded concentrations, often in twofold steps.

Another data set concerns CoNS non-epidermidis. Kind of data set: Broth microdilution MIC, PJI isolates (Example 1). In kind it is cell-based, coagulase-negative staphylococci. As to conditions: RPMI; N = 53. The procedure: as §1
The next data set concerns P. aeruginosa. Kind of data set: Broth microdilution MIC, PJI isolates (Example 1). In kind it is cell-based, Pseudomonas aeruginosa. As to conditions: RPMI; N = 20. The procedure: as §1
Another data set relates to 5 test isolates. As to conditions: PBS and H2O, 1× and 0.5× MIC, all evaluated organisms. The procedure: (§2) Base test media for the TK assay were phosphate-buffered saline (PBS), water, and cation-adjusted Mueller-Hinton broth (CAMHB), all adjusted to pH 7.4 with sodium hydroxide (NaOH) or hydrochloric acid (HCl) and then filter-sterilized.
(§3) Double strength (2×) Dey/Engley neutralizing broth (D/E) was used as a neutralizer for dilution and plating during determination of CFU/mL at each TK assay time point. Track plating was conducted on TSAB for Staphylococcus aureus NRS382 and on TSA without sheep's blood for all other organisms. TSA was used for spread plate enumeration of CFU/mL during a pilot study testing toxicity of D/E to bacteria and neutralization of SEQ ID NO: 1 in D/E.
(§4) Drug stocks of 5120 μg/mL in water at pH 5 were diluted in PBS pH-7.4 to 100× the final concentrations desired for each TK assay and frozen at −20° C. until use.
(§5) The TK test panel was prepared in a 96-well deep well plate, where 890 μL of each test media and 10 μL of 100× drug stocks were added to the appropriate wells. A growth control containing no drug was included, where 10 μl of PBS (pH 7.4) was added in place of drug.
(§6) A cell suspension was prepared from growth of a freshly streaked plate equivalent to the turbidity of a 0.5 McFarland standard in PBS at (pH 7.4). Deep-well test panels prepared as described above were inoculated with 100 μL of the 0.5 McFarland cell suspension, targeting a final inoculum of approximately 1 to 2×10^7 CFU/mL. During the TK assay, the 96 deep-well plate was left on the bench top at room temperature.
(§7) Aliquots of 100 μL were removed from the test panel immediately (0 minutes), and at 2.5, 5, 10, 15, and 30 minutes, and mixed with 100 μL 2×D/E to neutralize the rapid bactericidal activity of SEQ ID NO: 1. Cells were then serially diluted ten-fold in 2× Dey/Engley broth four times yielding a dilution series ranging from 2 to 2×10-4. Ten microliters from each step of the dilution series were track-plated in duplicate on TSA to enumerate viable counts (CFU/mL). Plates were then incubated at 35° C. overnight.
(§8) The resulting colonies were counted, and viable counts (CFU/mL) were determined from the average count of the duplicate plates. The limit of detection (LOD) for the assay was 100 CFU/mL. The LOD reflects the average CFU/ml if just one colony grew from the least diluted sample (DF=2) between the two track plate replicates, where 10 μL had been plated. Log-transformed viable counts (log10 CFU/mL) were then plotted vs. time.

The next data set relates to E. Coli CDC 0451. The note with it: 1× MIC, PBS, without sodium bicarbonate. Here is the method:
as §2, §3, §4, §5, §6, §7, §8

For the next data set, the system named is S. aureus NRS 384. Here is the method:
as §2, §3, §4, §5, §6, §7, §8

The test system of the next data set is S. epidermidis MMX 8655. The note with it: by […]; 1× MIC; PBS and H2O. The procedure:
as §2, §3, §4, §5, §6, §7, §8

The test system of data set [1] is P. aeruginosa CDC 0515 biofilm. The data set is described as follows: Microtiter plate biofilm studies (previous), resazurin viability. The source says: In those previous studies, mature biofilms were formed on polystyrene microtiter plates through growth in CAMHB, followed by exposure to SEQ ID NO: 1 and resazurin addition to measure cell viability.
For data set [2], the system named is Staphylococcus aureus SH1000. As to conditions: both concentrations (1 and 5 mg/mL).
Protocol: A bone tunnel in the tibial canal was created using a drill with a 1.2 mm or 1.6 mm tungsten carbide drill bit. The bone tunnel was then dried and treated to stimulate acute human PJI following primary arthroplasty. A Kirschner wire implant of 2 cm long with a 0.3 cm long top hook was placed in the bone tunnel and the wound was closed. Prior to closure of the superficial skin layer, 0.1 mL of 2×10^6 planktonic Staphylococcus aureus SH1000 (CFU/rabbit) in saline was injected into the joint space. A closure was performed, and a biofilm was allowed to become established over a period of 2 days.
At 2 days post infection, irrigation and debridement (I&D) was performed on the infected joint. […] Additionally, an intravenous administration of an antibiotic was administered. Bacterial burden was determined by colony forming unit (CFU) analysis.
Animals were observed up to 28 days. […] When an animal was sick or needed to be euthanized, the implant and a part of the tibia was collected post mortem and bacterial burden was determined by CFU analysis.
The following parameters and endpoints were evaluated in this study: X-ray for proper implant placement, bacterial burden by colony forming unit analysis (CFU), general clinical signs, detailed clinical signs, body weights, body weight changes, temperature, mortality, blood culture, erythrocyte sedimentation rate (ESR), and C-reactive protein levels (CRP). […]

One may read the MIC50 as an inhibitory concentration at the 50% level, which refers to growth in some studies and to a panel of isolates in others. Low values mean higher susceptibility, high ones lower susceptibility. For orientation: MIC90 means the lowest concentration that inhibits either 90% of growth or 90% of the strains tested, depending on the study. A high value points to weaker potency.

Several values for one entry are separate records, joined by “and”; a condition that tells them apart may be missing. Equal entries are not always repeated. Where two headings read alike, the source gives them in different places. Where no end group is shown, it is not given here.

For RRWVRRVRRVWRRVVRVVRRWVRR [SEQ ID NO: 1], the MIC50 against S. epidermidis (All S. epidermidis (N = 104)) was determined as 0.12 µg/mL; with S. epidermidis (MRSE (N = 58)), 0.12 µg/mL; in the data set on S. epidermidis (MSSE (N = 46)), 0.12 µg/mL; against CoNS non-epidermidis, 0.06 µg/mL; in the data set with P. aeruginosa it was 1 µg/mL. The MIC90 was 0.12 µg/mL in the data set on S. epidermidis (All S. epidermidis (N = 104)); 0.12 µg/mL in the data set on S. epidermidis (MRSE (N = 58)); 0.12 µg/mL with S. epidermidis (MSSE (N = 46)); 0.06 µg/mL in the data set with CoNS non-epidermidis; 1 µg/mL against P. aeruginosa. Besides, the log killing entry in the data set with 5 test isolates is listed as “Greater than 1 log”. Besides, the “killing (log)” value in the data set with E. Coli CDC 0451 is more than 3. The log-kill is not below 3 log in the data set with S. aureus NRS 384 (0 min, 0.5 and 1× MIC in H2O, absence of sodium bicarbonate); approximately 3 log in the data set on S. aureus NRS 384 (after […], 1× MIC in PBS +/- sodium bicarbonate); not below 3 log in the data set on S. aureus NRS 384 (by […], 0.5 and 1× MIC in H2O, presence of sodium bicarbonate); approximately 3 log in the data set on S. epidermidis MMX 8655. For the same sequence, in data set [1] (500 μg/mL, 15 minutes), the “decrease in cell viability (resazurin reduction)” value is “ca. 70%”. The MIC in data set [1] (two previous microtiter plate biofilm studies) was 8 µg/mL and 16 µg/mL. Also, in [2], the “body weight vs control group” value is “no statistically significant bodyweight differences”.
